The text below walks through data of US20030199098A1, “Advanced tool for the quantification uniformity within biological processes and conversions” (priority 2000, published 2003).

Data set [1] is described as follows: clinical. The conditions noted are these: male, human, in vivo. From the text: FIG. 3 ethanol concurrency test (simultaneously performed on the same human subject during a single experimental session) in a graphical representation
The following TABLE 1 of results describes the FIG. 3 curves:
The INTOXIMETER EC/IR 3000, which was used for the data presented in the TABLE 1, was made by Intoximeter, Inc. of St. Louis, Mo. The transcutaneous ethanol sensors (TES #33, #39) were made by Giner Inc. of Waltham, Mass.

For data set [2] the following is noted: humans, routine clinical experiments.
Excerpt: This tool is applicable no matter which technique or equipment is used to obtain the initial readings.

As a reminder, the half-life is the time needed for the level to fall by half in the phase considered. High values mean slow loss, low ones fast loss. Consider `CCO` [ethanol], for which the half-life in data set [1] worked out at 1.48 h. The “Index-K efficiency corridor for alcohol catabolism” value in data set [2] is reported as “up to 3.4”.
